Measured values as given in article PMC11729640, “Synthesis and evaluation of 6-arylaminobenzamides as positron emission tomography imaging ligands for the sphingosine-1-phosphate-5 receptor” (RSC Medicinal Chemistry, 2025).

How the values were obtained:
rat brain = experiment: Pilot PET in vivo imaging in naïve rats; set-up: species or system Sprague–Dawley rats; settings: intravenous bolus, n = 3
Experimental: Following successful preparation of [^18F]TEFM78, PET imaging with rodents was next conducted. On intravenous bolus administration of [^18F]TEFM78, there was rapid uptake of the radiotracer into the rat brain (Fig. 3a), followed by clearance within 20 minutes of the scan starting (Fig. 3b). […] The biodistribution and kinetics of the spinal cord were different from the brain with a lower peak radiotracer uptake but slower clearance (Fig. 3b). […] Typically, low free fraction of compounds can limit brain penetration. However, as shown in the PET images presented in Fig. 3, despite low free fraction, brain penetration of [^18F]TEFM78 is successfully achieved. […]
Fig. 3 Brain and spinal cord kinetics of [^18F]TEFM78 in naïve rats. […] Data expressed as SUV and presented as mean ± SEM, n = 3.
All animal procedures were performed in accordance with the guidelines for care and use of laboratory animals of Edinburgh University and experiments were approved by the Home Office under the Animals (Scientific Procedures) Act 1986, UK. […] Once the PET scans were reconstructed, data was analysed using PMOD image analysis software (PMOD Technologies LLC, Zürich, Switzerland). […] Time activity curves (TACs) were created for each region and PET data expressed as standard uptake value (SUV), calculated as radioactive concentration in the VOI divided by the injected dose and animal's weight.

[1] = Stability of radiotracer by radio-HPLC and radio-TLC; format: physicochemical
Text: On identification of TEFM78 as the lead compound, a synthetic route to access a suitable precursor for late stage radiofluorination was developed (Scheme 3). Our approach focused on the synthesis of a 6-arylaminobenzamide that could undergo late-stage functionalisation at the 4′-position for subsequent radiofluorination. Nucleophilic aromatic substitution of 9b with 2,6-dimethylaniline (18), followed by Ullmann coupling and amidation gave benzamide 21 in 81% yield over the three steps. Activation of the electron-rich aniline ring was achieved using silver(I) triflimide-catalysed iodination.[17] Following optimisation (solvent and reaction time), this gave 22 in 54% yield. Subsequent Pd(0)-catalysed stannylation gave trimethyltin precursor 23 in 84% yield. The radiosynthesis of [^18F]TEFM78 was then performed using a TRACERlab FXFN automated synthesiser. No-carrier-added [^18F]fluoride from the cyclotron was trapped on a carbonate-pre-conditioned quaternary methyl ammonium (QMA) cartridge, eluted into the reaction vessel and then azeotropically dried. […]
Analytical HPLC was carried out on a Thermo Dionex Ulimate system 3000 equipped with a Berthold FlowStar LB 513 radio flow detector and a DAD-3000 UV detector. […] The nonradioactive standards were detected using a UV wavelength of 254 nm.

peak standard uptake value (SUV) in the brain (rat brain): 3 g/mL
radiochemical purity (RCP) ten hours after production (stability) [1]: > 99%
Compound: COc1c(C)ccc(Nc2c(C)cc([18F])cc2C)c1C(N)=O [[^18F]TEFM78]
